Patent US20210115104A1, “AMYLIN ANALOGUES” (Zealand Pharma A/S, priority 2015, published 2021)
pEC50: −log10 of the molar value. *1 amine or outer side, *2 acyl side, *3 side chain or, on linkers, in order; H or OH if unused. Where a SMILES comes first, the peptide text is derived from it. Bridges are numbered along the chain shown (N, C = ends). [ ]: non-standard residue; d: D form. The star is where a group is joined. C20 diacid = O=C(O)CCCCCCCCCCCCCCCCCCC(=O)*; γGlu = O=C(O)[C@H](CCC(=O)[*:2])N[*:1]; Hyp = O=C(O)[C@@H]1C[C@@H](O)CN1; NMeI = CC[C@H](C)[C@H](NC)C(=O)O; Sar = CNCC(=O)O

Columns and labels:
[1] = target: T1, human amylin receptor 3 (hAMYR3), hCTR2 co-expressed with hRAMP3 (Homo sapiens, UniProt O60896+P30988); assay: hAMYR3 cAMP assay (AlphaScreen) in COS7 cells; type: cell-based; details: cAMP induction, COS7 cells expressing hAMYR3; Table 1; read-out: hAMYR3 EC50
T1 construct: expressed in transfected cells
T1 sequence (P30988 25-474): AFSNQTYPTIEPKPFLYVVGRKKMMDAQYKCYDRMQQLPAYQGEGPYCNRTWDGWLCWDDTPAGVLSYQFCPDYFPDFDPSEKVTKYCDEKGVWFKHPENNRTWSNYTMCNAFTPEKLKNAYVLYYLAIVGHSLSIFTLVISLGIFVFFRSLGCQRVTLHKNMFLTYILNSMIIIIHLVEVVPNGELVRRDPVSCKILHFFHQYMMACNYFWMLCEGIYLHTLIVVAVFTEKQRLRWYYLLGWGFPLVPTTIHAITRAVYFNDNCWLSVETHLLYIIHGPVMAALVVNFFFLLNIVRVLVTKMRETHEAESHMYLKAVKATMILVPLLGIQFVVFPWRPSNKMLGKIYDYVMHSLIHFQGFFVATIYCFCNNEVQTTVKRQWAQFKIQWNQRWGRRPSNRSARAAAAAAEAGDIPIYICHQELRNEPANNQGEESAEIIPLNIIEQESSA
T1 sequence (O60896 24-148 partner): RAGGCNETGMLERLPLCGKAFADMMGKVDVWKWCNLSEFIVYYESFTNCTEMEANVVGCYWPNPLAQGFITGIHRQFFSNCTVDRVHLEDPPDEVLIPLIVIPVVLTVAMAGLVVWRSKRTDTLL
Excerpt: The cell line COS7, originating from African Green Monkey kidney fibroblast cells, was used for establishment of the stable cell lines described below. The COS7 cellular background was used due to it being RAMP naïve, and as such it provides the best available system for testing of the monomeric hCTR and different heterodimeric amylin receptor subtypes functionally generated by introduction of the individual RAMPs.
A cell line expressing the human amylin receptor 3 (hAMYR3) was generated in the COS7 cellular background as stable clones. In brief, hCTR2 (GI:4502547) and hRAMP3 (GI:118572586) were amplified by PCR using primers encoding terminal restriction sites for subcloning. The 5′-end primers additionally encoded a near Kozak consensus sequence to ensure efficient translation. The fidelity of the DNA encoding the receptor was confirmed by DNA sequencing. The PCR products encoding the receptor were subcloned into a proprietary tri-cistronic mammalian expression vector with RAMP3, hCTR2 and neomycin (G418) resistance marker. The mammalian expression vector encoding the receptor was transfected into COS7 cells by a standard liposome transfection method. 48 hours post-transfection, cells were seeded for limited dilution cloning and selected with 1 mg/ml G418 in the culture medium. After 3 weeks, surviving colonies of hAMY3R-expressing cells were picked, propagated and tested in the amylin efficacy assay as described in Example 3 below. The functional generation of the amylin receptor phenotype was verified in the efficacy assay by a left-shifted efficacy response to amylin relative to monomeric calcitonin receptor, and one hAMYR3-expressing clone was chosen for compound profiling.
In vitro activity of test peptides at the hCTR2 and hAMYR3 receptors was assessed by measuring the induction of cAMP following stimulation of the receptor using the AlphaScreen® cAMP Assay kit from Perkin-Elmer.
Briefly, COS7 cells expressing hCTR2 (see Example 2, above) were seeded at 30-40,000 cells per well in 96-well microtiter plates coated with 0.01% poly-L-lysine, and grown for 1 day in culture in 100 μl growth medium [DMEM, 10% FCS, Penicillin (100 IU/ml), Streptomycin (100 μg/ml)]. On the day of analysis, growth medium was removed and the cells were washed once with 200 μl Tyrode buffer [Tyrode's Salts (9.6 g/I), 10 mM HEPES, pH 7.4]. Cells were incubated in 100 μl Tyrode buffer containing increasing concentrations of test peptides, 100 µM IBMX and 0.1% casein for 15 min at 37° C. The reaction was stopped by carefully decanting off the compound/buffer medium and replacing it with lysis/detection buffer (80 μl 0.1% w/v BSA, 5 mM HEPES, 0.3% v/v Tween-20 in deionized water). After incubation at room temperature for 10 min., the cAMP content of the resulting cell lysate was estimated according to the AlphaScreen® cAMP Assay manufacturer's instructions. EC50 values were estimated by computer-aided curve fitting using the 4-parameter logistic (4PL) non-linear model.

[2] = target: T2, human calcitonin receptor (hCTR2) (Homo sapiens, UniProt P30988); assay: hCTR2 cAMP assay (AlphaScreen) in COS7 cells; type: cell-based; details: cAMP induction, COS7 cells expressing hCTR2; Table 1; read-out: hCTR2 EC50
T2 construct: expressed in transfected cells
T2 sequence (P30988 25-474): T1 sequence (P30988 25-474)
Summary of the method: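 Stable hCTR2 clone in RAMP-naïve COS7 cells stimulated 15 min at 37 °C with increasing peptide concentrations in Tyrode buffer pH 7.4 containing IBMX and 0.1% casein. cAMP in lysates measured by AlphaScreen; EC50 from 4-parameter logistic fit.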

[3] = Assessment of chemical stability (RP-HPLC normalized purity); type: physicochemical; details: 7 days, 40° C., Table 1; for Normalized purity after 7 days, 40° C., pH 4: pH 4, 0.2 mg/ml; for Normalized purity after 7 days, 40° C., pH 6: pH 6, 0.2 mg/ml; for Normalized purity after 7 days, 40° C., pH 7.5: pH 7.5, 0.2 mg/ml; for Normalized purity after 7 days, 40° C., pH 9: pH 9, 0.2 mg/ml
Summary of the method: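 Peptides at 0.2 mg/ml in water adjusted to pH 4, 6, 7.5 or 9, incubated at 40° C for 7 days. Main-peak area-% by RP-HPLC (C8 ammonium formate or C18 TFA gradient, UV 220 nm), normalized to T=0 as 100.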

[4] = Assessment of physical stability (Thioflavin T fibrillation); type: physicochemical; design: key: FND = fibrillation not detected; FD = fibrillation detected; details: 1 mg/ml, 40° C., ThT; for Fibrillation pH 4.0 (Ac): 50 mM acetate buffer pH 4.0, 96 hours; for Fibrillation pH 7.0 (His): 50 mM histidine buffer pH 7.0, 96 hours; for Fibrillation pH 7.0 (Phos.): 50 mM phosphate buffer pH 7.0, 96 hours
Summary of the method: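 1 mg/ml peptide with 40 μM ThT in 50 mM phosphate pH 7.0, 50 mM histidine pH 7.0 or 50 mM acetate pH 4.0, in triplicate. Fluorescence read every 10 min after 300 s agitation over 96 h at 40 °C. Lag-time (h) is the intersection of linear fits to stable and growth phases.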

SMILES	pEC50 [1]	pEC50 [2]	Normalized purity after 7 days, 40° C., pH 4 [3]	Normalized purity after 7 days, 40° C., pH 6 [3]	Normalized purity after 7 days, 40° C., pH 7.5 [3]	Normalized purity after 7 days, 40° C., pH 9 [3]	Fibrillation pH 4.0 (Ac) [4]	Fibrillation pH 7.0 (His) [4]	Fibrillation pH 7.0 (Phos.) [4]
CC[C@H](C)[C@@H](C(=O)N[C@@H](CC(C)C)C(=O)N[C@@H](CO)C(=O)N[C@@H](CO)C(=O)N[C@H](C(=O)N[C@@H](CC(=O)O)C(=O)N[C@H](C(=O)NCC(=O)N[C@@H](CO)C(=O)N[C@@H](CC(=O)O)C(=O)N[C@H](C(=O)N1CCC[C@H]1C(N)=O)[C@@H](C)O)C(C)C)[C@@H](C)O)N(C)C(=O)[C@H](C)NC(=O)CN(C)C(=O)[C@H](Cc1ccccc1)NC(=O)[C@H](CO)NC(=O)[C@H](CO)NC(=O)[C@H](CCCNC(=N)N)NC(=O)[C@@H](NC(=O)[C@H](CC(C)C)NC(=O)[C@H](Cc1ccccc1)NC(=O)[C@H](Cc1c[nH]cn1)NC(=O)[C@H](C)NC(=O)[C@H](CC(C)C)NC(=O)[C@H](CCCNC(=N)N)NC(=O)[C@H](CC(=O)O)NC(=O)[C@@H](NC(=O)[C@H](C)NC(=O)[C@@H]1CSSC[C@H](NC(=O)[C@H](CCCNC(=N)N)NC(=O)CC[C@H](NC(=O)CCCCCCCCCCCCCCCCCCC(=O)O)C(=O)O)C(=O)N2CCC[C@H]2C(=O)N[C@@H]([C@@H](C)O)C(=O)N[C@@H](C)C(=O)N[C@@H]([C@@H](C)O)C(=O)N1)[C@@H](C)O)C(C)C [Compound 23, [19CD]-isoGlu-R-C( )-PTAT-C( )-ATDRLAHFLVRSSF-Gly(Me)-A-Ile(Me)-LSSTDVGSDTP-NH2] ({C20 diacid-γGlu}-RCPTATCATDRLAHFLVRSSF[Sar]A[NMeI]LSSTDVGSDTP-NH2; disulfide 2-7)	9.89								
CC[C@H](C)[C@@H](C(=O)N[C@@H](CC(C)C)C(=O)N[C@@H](CO)C(=O)N[C@@H](CO)C(=O)N[C@H](C(=O)N[C@@H](CCC(=O)O)C(=O)N[C@H](C(=O)NCC(=O)N[C@@H](CO)C(=O)N[C@@H](CC(N)=O)C(=O)N[C@H](C(=O)N1C[C@H](O)C[C@H]1C(N)=O)[C@@H](C)O)C(C)C)[C@@H](C)O)N(C)C(=O)[C@H](C)NC(=O)CN(C)C(=O)[C@H](Cc1ccccc1)NC(=O)[C@H](CO)NC(=O)[C@H](CO)NC(=O)[C@H](CCCNC(=N)N)NC(=O)[C@H](CCC(N)=O)NC(=O)[C@H](CC(C)C)NC(=O)[C@H](Cc1ccccc1)NC(=O)[C@H](Cc1c[nH]cn1)NC(=O)[C@H](C)NC(=O)[C@H](CC(C)C)NC(=O)[C@H](CCCNC(=N)N)NC(=O)[C@H](CC(=O)O)NC(=O)[C@@H](NC(=O)[C@H](C)NC(=O)[C@@H]1CSSC[C@H](NC(=O)[C@H](CCCNC(=N)N)NC(=O)CC[C@H](NC(=O)CCCCCCCCCCCCCCCCCCC(=O)O)C(=O)O)C(=O)N[C@@H](CCC(N)=O)C(=O)N[C@@H]([C@@H](C)O)C(=O)N[C@@H](C)C(=O)N[C@@H]([C@@H](C)O)C(=O)N1)[C@@H](C)O [Compound 88, [19CD]-isoGlu-R-C( )-QTAT-C( )-ATDRLAHFLQRSSF-Gly(Me)-A-Ile(Me)-LSSTEVGSNT-Hyp-NH2] ({C20 diacid-γGlu}-RCQTATCATDRLAHFLQRSSF[Sar]A[NMeI]LSSTEVGSNT[Hyp]-NH2; disulfide 2-7)		10.22	A (A = >90%)	A (A = >90%)	A (A = >90%)	A (A = >90%)	FND	FND	FND
CC[C@H](C)[C@@H](C(=O)N[C@@H](CC(C)C)C(=O)N[C@@H](CO)C(=O)N[C@@H](CO)C(=O)N[C@H](C(=O)N[C@@H](CCC(=O)O)C(=O)N[C@H](C(=O)NCC(=O)N[C@@H](CO)C(=O)NCC(=O)N[C@H](C(=O)N1C[C@H](O)C[C@H]1C(N)=O)[C@@H](C)O)C(C)C)[C@@H](C)O)N(C)C(=O)[C@H](C)NC(=O)CN(C)C(=O)[C@H](Cc1ccccc1)NC(=O)[C@H](CO)NC(=O)[C@H](CO)NC(=O)[C@H](CCCNC(=N)N)NC(=O)[C@H](CCC(N)=O)NC(=O)[C@H](CC(C)C)NC(=O)[C@H](Cc1ccccc1)NC(=O)[C@H](Cc1c[nH]cn1)NC(=O)[C@H](C)NC(=O)[C@H](CC(C)C)NC(=O)[C@H](CCCNC(=N)N)NC(=O)[C@H](CCC(=O)O)NC(=O)[C@@H](NC(=O)[C@H](C)NC(=O)[C@@H]1CSSC[C@H](NC(=O)[C@H](CCCNC(=N)N)NC(=O)CC[C@H](NC(=O)CCCCCCCCCCCCCCCCCCC(=O)O)C(=O)O)C(=O)N[C@@H](CCC(N)=O)C(=O)N[C@@H]([C@@H](C)O)C(=O)N[C@@H](C)C(=O)N[C@@H]([C@@H](C)O)C(=O)N1)[C@@H](C)O [Compound 90, [19CD]-isoGlu-R-C( )-QTAT-C( )-ATERLAHFLQRSSF-Gly(Me)-A-Ile(Me)-LSSTEVGSGT-Hyp-NH2] ({C20 diacid-γGlu}-RCQTATCATERLAHFLQRSSF[Sar]A[NMeI]LSSTEVGSGT[Hyp]-NH2; disulfide 2-7)		9.70	A (A = >90%)	A (A = >90%)	A (A = >90%)	A (A = >90%)	FND	FND	FND
